Experiments:
[1] = test system: rats subjected to li-pilo SE; experiment: Example 2: mortality over the first 48 h after Li-pilo SE; assay type: in vivo, rat; design: concentration or dose not given beside the values
[2] = Blood levels in rats, oral administration of Test Compound for 8 days (toxicology studies); assay type: in vivo; conditions: rat; for Cmax at 8 days: blood
Text: In toxicology studies in rats, oral administration of Test Compound (TC) for 8 days produced the following C max and AUC: […]

## NC(=O)OC[C@@H](O)c1ccccc1Cl [TC]
[1]; TC30, group for cell counting at 14 days
  mortality over the first 48 h after SE: 33%
[1]; TC30, group for latency to SRS and late cell counting
  mortality over the first 48 h after SE: 27%
[1]; TC60, group for cell counting at 14 days
  mortality over the first 48 h after SE: 8%
[1]; TC60, group for latency to SRS and late cell counting
  mortality over the first 48 h after SE: 0%
[1]; TC90, group for cell counting at 14 days
  mortality over the first 48 h after SE: 0%
[1]; TC90, group for latency to SRS and late cell counting
  mortality over the first 48 h after SE: 0%
[1]; TC120, group for cell counting at 14 days
  mortality over the first 48 h after SE: 33%
[1]; TC120, group for latency to SRS and late cell counting
  mortality over the first 48 h after SE: 0%
[2]; oral 30 mg/kg/day for 8 days
  Cmax at 8 days: 9330 ng/mL
  AUC: 97.32 micrograms-hour/mL
[2]; oral 100 mg/kg/day for 8 days
  Cmax at 8 days: 20600 ng/mL
  AUC: 230.33 micrograms-hour/mL
[2]; oral 300 mg/kg/day for 8 days
  Cmax at 8 days: 70300 ng/mL
  AUC: 525.95 micrograms-hour/mL

Source: patent US20110152362A1, “METHODS OF TREATING EPILEPTOGENESIS AND EPILEPSY” (priority 2004, published 2011)
